From article PMC4170738 (RSC advances, 2014)

Legend:
[1] = test system: control strain SME3359 (lacZ reporter under synthetic promoter repressed by LacI); assay: Control strain dose-response assay; type: cell-based, E. coli; details: for Control strain IC50: E. coli strain SME3359, 1 mM IPTG, 3 hours at 37°C, 6.2% DMSO; for IC50: Escherichia coli, 3 h, read-out: Control strain IC50
[2] = Stability towards thiol nucleophile glutathione; type: physicochemical; details: 10 µM in PBS pH 7.4 (1% DMSO), 50 µM GSH, room temperature, up to 48 hours
VirF [3] = molecular target: T1, VirF (Shigella flexneri, UniProt P0A2T1); assay: cell-based; type: cell-based; details: for VirF IC50: E. coli strain SME4382, virB-lacZ fusion, 1 mM IPTG, 3 hours at 37°C, 6.2% DMSO
T1 sequence (P0A2T1 whole entry, the tested form may be a part): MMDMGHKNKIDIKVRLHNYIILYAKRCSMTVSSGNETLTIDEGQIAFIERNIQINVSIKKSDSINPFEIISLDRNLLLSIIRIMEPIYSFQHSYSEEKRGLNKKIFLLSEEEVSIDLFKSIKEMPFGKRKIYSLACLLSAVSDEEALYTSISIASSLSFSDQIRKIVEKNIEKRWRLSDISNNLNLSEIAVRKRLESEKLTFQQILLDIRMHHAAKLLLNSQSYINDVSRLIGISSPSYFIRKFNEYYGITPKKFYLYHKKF

[4] = test system: E. coli strains SME4382 and SME3359; assay: E. coli growth experiments; type: cell-based; details: VirF and control strains, TY broth, 44 µM compound, 6.2% DMSO, 37°C
[5] = test system: VirF-dependent virulence genes (icsS, icsB, ipaB, virB); details: virB in S. flexneri; cited from earlier work
[6] = Aqueous stability in PBS pH 7.4 by RP HPLC/UV/HRMS; type: physicochemical; details: 10 µM in PBS pH 7.4 (1% DMSO), room temperature; by the 0th time point, about 30 minutes elapsed
VirF [7] = molecular target: T1, VirF; details: cell-based reporter gene assays with S. flexneri and E. coli; cited from earlier work
VirF [8] = molecular target: T1, VirF; details: purified VirF, in vitro; cited from earlier work

| Compound | Control strain IC50 [1] | VirF IC50 (VirF [3]) | further results |
| --- | --- | --- | --- |
| 1‧-hexyl-[2,3‧-biquinolin]-1‧-ium bromide [Entry 21] | not inhibiting the control strain | – | – |
| 1‧-propyl-[2,3‧-biquinolin]-1‧-ium bromide [Entry 20] | not inhibiting the control strain | – | – |
| Clc1ccc(C[n+]2cc(-c3ccc4ccccc4n3)cc3ccccc32)cc1.[Br-] [Entry 3, 1‧-(4-chlorobenzyl)-[2,3‧-biquinolin]-1‧-ium bromide] | – | – | GSH adduct formation [2]: no GSH adducts were observed |
| CCCCN1C=C(c2cccc(C)n2)C(C[N+](=O)[O-])c2ccccc21 (centres unmarked) [Entry 6, 1-butyl-3-(6-methylpyridin-2-yl)-4-(nitromethyl)-1,4-dihydroquinoline] | – | – | IC50 (VirF [3]): > 100 µM; Effect on bacterial growth [4]: inhibited the growth of the bacteria; IC50 [1]: > 100 µM |
| CCCCN1C=C(c2cccc(Cl)c2)C(C[N+](=O)[O-])c2ccccc21 (centres unmarked) [Entry 7, 1-butyl-3-(3-chlorophenyl)-4-(nitromethyl)-1,4-dihydroquinoline] | – | – | IC50 [1]: > 100 µM |
| CCCCN1C=C(c2ccc3ccccc3n2)C(c2ccccc2)c2ccccc21 (centres unmarked) [Entry 8, 1‧-butyl-4‧-phenyl-1‧,4‧-dihydro-2,3‧-biquinoline] | No inhibition | No inhibition | – |
| CCCCN1c2ccccc2C=C(c2ccc3ccccc3n2)C1C (centres unmarked) [Entry 10, 1‧-butyl-2‧-methyl-1‧,2‧-dihydro-2,3‧-biquinoline] | No inhibition | No inhibition | – |
| CCCCn1cc(-c2ccc3ccccc3n2)c2ccccc21 [Entry 12, 2-(1-butyl-1 H-indol-3-yl)quinoline] | no inhibitory activity | no inhibitory activity | – |
| CCCCn1c2ccccc2c(=O)c2ccccc21 [Entry 15, 10-butylacridin-9(10H)-one] | no inhibitory activity | no inhibitory activity | – |
| CCCCCCCCC[n+]1ccccc1.[Br-] [Entry 17, 1-nonylpyridin-1-ium bromide] | good to modest, non-specific activity | good to modest, non-specific activity | IC50 (VirF [3]): > 50 µM; IC50 [1]: > 50 µM |
| CCCCCCCCC[N+](CC)(CC)CC.[Br-] [Entry 18, N,N,N-triethylnonan-1-aminium bromide] | no inhibitory activity | no inhibitory activity | – |
| CC(C)[n+]1cc(-c2ccc3ccccc3n2)cc2ccccc21.[I-] [Entry 19, 1‧-isopropyl-[2,3‧-biquinolin]-1‧-ium iodide] | not inhibiting the control strain | – | – |
| CCCC[n+]1cc(-c2ccc3ccccc3c2)cc2ccccc21 [Entry 23, 1-butyl-3-(naphthalen-2-yl)quinolin-1-ium bromide] | – | – | IC50 (VirF [3]): 9 µM; IC50 [1]: > 100 µM |
| C=CCCC[n+]1cc(-c2ccc3ccccc3n2)cc2ccccc21.[Br-] [Entry 24, 1‧-(pent-4-en-1-yl)-[2,3‧-biquinolin]-1’-ium bromide] | not inhibiting the control strain | – | – |
| CCCCN1C=C(c2ccc3ccccc3n2)C(C[N+](=O)[O-])c2ccccc21 (centres unmarked) [SE-1, 1‧-Butyl-4‧-(nitromethyl)-1‧,4’-dihydro-2,3‧-biquinoline] | – | – | Expression of VirF-dependent virulence genes (mRNA) [5]: reduced the expression; Aqueous stability (degradation to the corresponding quaternary salt) [6]: degraded completely; Inhibition of transcription activation by VirF (VirF [7]): inhibitor; Inhibition of DNA binding by VirF (VirF [8]): inhibitor |
